Several values for one entry are separate records, joined by “and”; a condition that tells them apart may be missing. Identical values can stand only once.
Columns and labels:
[1] = xn = mol fraction of the nth substance listed; settings: Pendant drop shape
[2] = for surface tension liquid-gas: Pendant drop shape; for mass density: 101.33 kPa, Liquid

CCOC(C)OCC [1,1-diethoxyethane] + Cc1cc(C)cc(C)c1
[1]
Settings | surface tension liquid-gas [mN/m]
298.15 K, x1 = 0.0491 | 27.45
298.15 K, x1 = 0.1013 | 26.91
298.15 K, x1 = 0.1538 | 26.36
298.15 K, x1 = 0.1996 | 25.83
298.15 K, x1 = 0.2501 | 25.34
298.15 K, x1 = 0.3009 | 24.81
298.15 K, x1 = 0.3501 | 24.37
298.15 K, x1 = 0.4067 | 23.83
298.15 K, x1 = 0.4506 | 23.45
298.15 K, x1 = 0.4997 | 23.04
298.15 K, x1 = 0.5523 | 22.62
298.15 K, x1 = 0.601 | 22.26
298.15 K, x1 = 0.6508 | 21.92
298.15 K, x1 = 0.7006 | 21.64
298.15 K, x1 = 0.7507 | 21.43
298.15 K, x1 = 0.8014 | 21.2
298.15 K, x1 = 0.851 | 21.09
298.15 K, x1 = 0.8994 | 21.02
298.15 K, x1 = 0.9487 | 20.95
298.15 K, x1 = 1 | 20.88
308.15 K, x1 = 0.0488 | 26.55
308.15 K, x1 = 0.1009 | 25.97
308.15 K, x1 = 0.1495 | 25.4
308.15 K, x1 = 0.1991 | 24.86
308.15 K, x1 = 0.2498 | 24.32
308.15 K, x1 = 0.3014 | 23.84
308.15 K, x1 = 0.3503 | 23.35
308.15 K, x1 = 0.4004 | 22.89
308.15 K, x1 = 0.4508 | 22.44
308.15 K, x1 = 0.5011 | 22.03
308.15 K, x1 = 0.5503 | 21.61
308.15 K, x1 = 0.5979 | 21.25
308.15 K, x1 = 0.6511 | 20.9
308.15 K, x1 = 0.6997 | 20.62
308.15 K, x1 = 0.7503 | 20.33
308.15 K, x1 = 0.7977 | 20.15
308.15 K, x1 = 0.8462 | 20.04
308.15 K, x1 = 0.8993 | 19.95
308.15 K, x1 = 0.9418 | 19.93
308.15 K, x1 = 1 | 19.89
313.15 K, x1 = 0.0487 | 26.09
313.15 K, x1 = 0.0991 | 25.49
313.15 K, x1 = 0.1507 | 24.91
313.15 K, x1 = 0.1999 | 24.37
313.15 K, x1 = 0.2468 | 23.86
313.15 K, x1 = 0.3001 | 23.34
313.15 K, x1 = 0.3501 | 22.83
313.15 K, x1 = 0.4008 | 22.38
313.15 K, x1 = 0.4502 | 21.95
313.15 K, x1 = 0.5 | 21.54
313.15 K, x1 = 0.5495 | 21.12
313.15 K, x1 = 0.6005 | 20.73
313.15 K, x1 = 0.6506 | 20.4
313.15 K, x1 = 0.7005 | 20.11
313.15 K, x1 = 0.7514 | 19.8
313.15 K, x1 = 0.7996 | 19.63
313.15 K, x1 = 0.8494 | 19.52
313.15 K, x1 = 0.9003 | 19.48
313.15 K, x1 = 0.9498 | 19.44
313.15 K, x1 = 1 | 19.42

Cc1cc(C)cc(C)c1 [1,3,5-trimethylbenzene] + CCOC(C)OCC
[1], x2 = 0
Settings | surface tension liquid-gas [mN/m]
298.15 K | 28.05
308.15 K | 27.21
313.15 K | 26.78

Cc1ccc(C)c(C)c1 [1,2,4-trimethylbenzene]
[2]
Settings | mass density [kg/m3] | surface tension liquid-gas
298.15 K | 871.71 | 29.3 mN/m
308.15 K | 863.68 | 28.24 mN/m
313.15 K | 859.58 | 27.67 mN/m and 27.71 mN/m

COC(C)(C)OC [3,3-dimethyl-2,4-dioxapentane] + Cc1cc(C)cc(C)c1
[1]
Settings | surface tension liquid-gas [mN/m]
298.15 K, x1 = 0.05 | 27.6
298.15 K, x1 = 0.1002 | 27.14
298.15 K, x1 = 0.1494 | 26.72
298.15 K, x1 = 0.2001 | 26.28
298.15 K, x1 = 0.252 | 25.88
298.15 K, x1 = 0.3001 | 25.47
298.15 K, x1 = 0.3496 | 25.1
298.15 K, x1 = 0.3998 | 24.7
298.15 K, x1 = 0.4525 | 24.33
298.15 K, x1 = 0.4998 | 23.98
298.15 K, x1 = 0.5497 | 23.62
298.15 K, x1 = 0.5996 | 23.26
298.15 K, x1 = 0.6506 | 22.93
298.15 K, x1 = 0.7002 | 22.64
298.15 K, x1 = 0.7503 | 22.37
298.15 K, x1 = 0.7993 | 22.11
298.15 K, x1 = 0.8511 | 21.89
298.15 K, x1 = 0.8986 | 21.7
298.15 K, x1 = 0.9494 | 21.57
298.15 K, x1 = 1 | 21.46
308.15 K, x1 = 0.0562 | 26.65
308.15 K, x1 = 0.0995 | 26.21
308.15 K, x1 = 0.1481 | 25.77
308.15 K, x1 = 0.2023 | 25.29
308.15 K, x1 = 0.2502 | 24.87
308.15 K, x1 = 0.3002 | 24.49
308.15 K, x1 = 0.3497 | 24.06
308.15 K, x1 = 0.3982 | 23.71
308.15 K, x1 = 0.4499 | 23.31
308.15 K, x1 = 0.4964 | 22.95
308.15 K, x1 = 0.5493 | 22.54
308.15 K, x1 = 0.6001 | 22.17
308.15 K, x1 = 0.6502 | 21.85
308.15 K, x1 = 0.7006 | 21.52
308.15 K, x1 = 0.7454 | 21.27
308.15 K, x1 = 0.7999 | 20.99
308.15 K, x1 = 0.8492 | 20.74
308.15 K, x1 = 0.8998 | 20.57
308.15 K, x1 = 0.9492 | 20.48
308.15 K, x1 = 1 | 20.43
313.15 K, x1 = 0.0511 | 26.21
313.15 K, x1 = 0.1023 | 25.71
313.15 K, x1 = 0.1503 | 25.26
313.15 K, x1 = 0.2014 | 24.79
313.15 K, x1 = 0.2506 | 24.39
313.15 K, x1 = 0.3013 | 23.95
313.15 K, x1 = 0.3498 | 23.56
313.15 K, x1 = 0.396 | 23.19
313.15 K, x1 = 0.4486 | 22.77
313.15 K, x1 = 0.5014 | 22.36
313.15 K, x1 = 0.5508 | 21.99
313.15 K, x1 = 0.5931 | 21.68
313.15 K, x1 = 0.6488 | 21.31
313.15 K, x1 = 0.6988 | 20.99
313.15 K, x1 = 0.7499 | 20.66
313.15 K, x1 = 0.7994 | 20.4
313.15 K, x1 = 0.8388 | 20.24
313.15 K, x1 = 0.8976 | 20
313.15 K, x1 = 0.944 | 19.95
313.15 K, x1 = 1 | 19.91

Cc1ccc(C)c(C)c1 [1,2,4-trimethylbenzene] + CCOC(C)OCC
[1], x2 = 0
Settings | surface tension liquid-gas [mN/m]
298.15 K | 29.3
308.15 K | 28.24
313.15 K | 27.71

CCOC(C)OCC [1,1-diethoxyethane]
[2]
Settings | mass density [kg/m3] | surface tension liquid-gas [mN/m]
298.15 K | 821.96 | 20.88
308.15 K | 811.48 | 19.89
313.15 K | 806.18 | 19.42

Source: the NIST ThermoML archive (doi:10.1021/je060490w)
